Results on one compound are retold here after EP2545917B1, “NOVEL EP4 AGONIST” (Kaken Pharmaceutical Co., Ltd., priority 2010, dated 2011).

The nature of data set [1]: In vitro metabolic stability: β-oxidation reaction in rat liver mitochondria fraction. The format is in vitro ADME. To be noted: parent compound after NADPH-independent β-oxidation reaction, 37°C, 30 min, tested as isomer mixtures, average ± SD of 3 experiments. How it is done:
A mixture of the compound F and compound J of the present invention described in Table 1 (F:J = 52:41, synthesized in Example 14), and a mixture of compounds wherein the tetrazole groups at C-1 of compound F and compound J are respectively substituted by carboxylic acid (referred to as carboxylate form, F:J = 54:34, synthesized in Example 15) were tested.
First, a mitochondria fraction was prepared from the rat liver according to the following Reference A. Then, in reference to the method of […] et al. described in the following References B and C, an NADPH-independent β oxidation reaction was studied. The reaction was carried out at 37°C for 30 min, and stopped with a methanol solution containing a suitable internal standard substance. Each compound was quantified by the internal standard method using a high performance liquid chromatography mass spectrometry apparatus (LC-MS/MS). The compound residual ratio after metabolic reaction of compounds F, J and each carboxylate form thereof in rat mitochondria fraction is shown in the following Table 2 in average ± standard deviation of 3 experiments. Table 2 Residual Ratio of Parent Compound after β-Oxidation Reaction

Another data set concerns the target T1, Human EP2 (Homo sapiens, UniProt P43116).
T1 construct: expressed in transfected cells; host or cells: COS-7
Briefly: Receptor affinity, tritium-labeled PGE2 binding to membranes of transfected COS-7 cells. How it is done: (§1) PG receptor affinity of compound F and compound J of the present invention was evaluated. Compound F used was one synthesized in Example 9, and compound J was prepared by separating and purifying the compound synthesized in Example 14 with a column (the same preparations were used in the following Examples). COS-7 cells were transfected with the genes of mouse EP4, human EP1-4 or human IP to overexpress the receptor and then the cell membranes were collected. […] The dissociation constant Kd value was obtained and inhibition constant Ki value of each test compound was determined in a conventional method.

The target of the next data set is T2, Mouse EP4 (Mus musculus, UniProt P32240).
T2 construct: expressed in transfected cells; host or cells: COS-7
Described as above. How it is done:
as §1

Another data set has as its target T3, Human EP3 (Homo sapiens, UniProt P43115).
T3 construct: expressed in transfected cells; host or cells: COS-7
T3 sequence (P43115 1-390): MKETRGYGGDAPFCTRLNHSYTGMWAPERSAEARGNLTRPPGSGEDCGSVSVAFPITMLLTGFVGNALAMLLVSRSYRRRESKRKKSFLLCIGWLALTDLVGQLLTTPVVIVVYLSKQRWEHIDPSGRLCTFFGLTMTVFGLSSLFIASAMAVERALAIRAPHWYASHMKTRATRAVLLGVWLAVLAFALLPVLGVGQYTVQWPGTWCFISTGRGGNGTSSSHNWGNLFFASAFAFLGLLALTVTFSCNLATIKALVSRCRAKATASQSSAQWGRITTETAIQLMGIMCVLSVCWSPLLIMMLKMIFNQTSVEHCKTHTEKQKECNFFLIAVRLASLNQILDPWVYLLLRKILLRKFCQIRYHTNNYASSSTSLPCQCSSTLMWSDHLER
Described as above. How it is done:
(§2) COS-7 cells were transfected with the genes of mouse EP4, human EP1-4 or human IP to overexpress the receptor and then the cell membranes were collected. […] The dissociation constant Kd value was obtained and inhibition constant Ki value of each test compound was determined in a conventional method.

A further data set addresses T4, Human EP4 (Homo sapiens, UniProt P35408).
T4 construct: expressed in transfected cells; host or cells: COS-7
The description is as above. How it is done: as §2

Data set [2] deals with CD4+CD25- T cell transfer colitis. Briefly: Prophylactic effect on CD4+CD25- T cell transfer colitis model in mice. The format is in vivo, C.B-17/Icr-scid mice. To be noted: scid mice, oral 1 mg/kg once a day for 20 days. As to the method:
Female BALB/cA Jcl mice, 6 weeks old, body weight 19 - 23 g (CLEA Japan, Inc.) and female C.B-17/Icr-scid mice (6 weeks old, CLEA Japan, Inc.) were purchased, acclimated for 1 week and used for the study. After laparotomy under ether anesthesia, BALB/cA Jcl mice were exsanguinated to death through the abdominal aorta and caudal vena cava, and the spleen was isolated. Splenocytes were prepared from the spleen and then CD4^+CD25^- T cells were prepared with a CD4^+ T cell Isolation Kit (No. 130-090-860, Milky Biotech Co., Ltd.) and CD25-Biotin antibody (No. 130-092-569, Milky Biotech Co., Ltd.). The cells were separated using the autoMACS Separator (Milky Biotech Co., Ltd.). The separated CD4^+CD25^- T cells were suspended in physiological phosphate buffer solution, and 2.5×10^5 cells per animal were intraperitoneally administered to C.B-17/Icr-scid mice to induce colitis. […] To the control group was orally administered a solvent (1 vol% ethanol solution) at 10 mL/kg. […] The fecal occult blood score was evaluated in the same manner as in Example 23. […] Eight to 10 mice were used for each group and the results were expressed as average.

A further data set concerns eye. Kind of data set: Local irritative effect on the eye in rabbits. It is filed as in vivo, Japanese white rabbits. Particulars: single instillation, left eye. How it is done:
Japanese white rabbits (male, 10 weeks old, BIOTEC Co., Ltd.) were purchased, acclimated for 1 week and used for the study. Compound F solution (0.01 w/v%) was instilled once into the cornea of both eyes at a volume of 50 µL/eye with a micropipette. The intraocular pressure of the right eye was measured and the local irritative effect on the eye was evaluated using the left eye. After surface anesthesia with oxybupranol (Benoxil 0.4% instillation solution), the intraocular pressure was measured before ocular instillation ) and 1, 2, 3, 4, 6 and 8 hr after the instillation using a pneumatonometer (Alcon Ltd.). In addition, the local irritative effect on the eye was evaluated by scoring conjunctival congestion, conjunctival edema, cornea opacity, iris congestion, excretion and eye closure performance. For the evaluation, phosphate buffer was used for the solvent control group, and isopropyl unoprostone (Rescula eye drops, Santen Pharmaceutical Co., Ltd.) was used for comparison. Six animals were used for each group and the results were expressed as average.

Data set [3] relates to concanavalin A-induced hepatitis. Briefly: Prophylactic effect on concanavalin A-induced hepatitis model in mice. It is filed as in vivo, BALB/c mice. To be noted: oral 1 hr before Con A, compound F 1 mg/10 mL/kg, prednisolone 5 mg/10 mL/kg, 20 hr after Con A. How it is done:
BALB/c mice (female, 7 weeks old, Japan SLC) were purchased, acclimated for 1 week and used for the study. Except the no-induction group, Con A (type IV, Sigma-Aldrich) dissolved in saline was administered from the tail vein of the mice at a dose of 12.5 mg/10 mL/kg to induce hepatitis. Twenty hr later, the mice were subjected to laparotomy under ether anesthesia. A 0.5 mL of blood sample was collected from the caudal vena cava and heparinized plasma was obtained to measure plasma ALT and AST activities. Test substances were compound F (1 mg/10 mL solution), prednisolone (Nacalai Tesque, 5 mg/10 mL suspension (with 0.5 w/v% methylcellulose)) and water for injection (administered to the control group), which were orally administered at a volume of 10 mL/kg 1 hr before Con A injection. Seven to 9 animals were used for each group. After logarithmic transformation of the data, one-way analysis of variance was performed for statistical evaluation.

Molecules are shown by their SMILES. pKi: −log10 of the molar value.

T4 sequence (P35408 whole entry): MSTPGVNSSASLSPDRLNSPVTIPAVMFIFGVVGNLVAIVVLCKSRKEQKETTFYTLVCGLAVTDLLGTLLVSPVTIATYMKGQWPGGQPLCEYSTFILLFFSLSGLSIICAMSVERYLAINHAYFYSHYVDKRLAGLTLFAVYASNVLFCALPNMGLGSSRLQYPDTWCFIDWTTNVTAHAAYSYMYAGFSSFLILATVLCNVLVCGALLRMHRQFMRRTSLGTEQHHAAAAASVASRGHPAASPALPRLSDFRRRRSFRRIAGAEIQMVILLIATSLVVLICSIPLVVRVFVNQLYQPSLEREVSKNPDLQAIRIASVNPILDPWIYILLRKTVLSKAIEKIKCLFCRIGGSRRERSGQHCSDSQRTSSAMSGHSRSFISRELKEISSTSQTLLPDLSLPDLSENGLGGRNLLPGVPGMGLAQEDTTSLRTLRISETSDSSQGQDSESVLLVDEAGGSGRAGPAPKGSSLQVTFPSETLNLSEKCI
T1 sequence (P43116 whole entry): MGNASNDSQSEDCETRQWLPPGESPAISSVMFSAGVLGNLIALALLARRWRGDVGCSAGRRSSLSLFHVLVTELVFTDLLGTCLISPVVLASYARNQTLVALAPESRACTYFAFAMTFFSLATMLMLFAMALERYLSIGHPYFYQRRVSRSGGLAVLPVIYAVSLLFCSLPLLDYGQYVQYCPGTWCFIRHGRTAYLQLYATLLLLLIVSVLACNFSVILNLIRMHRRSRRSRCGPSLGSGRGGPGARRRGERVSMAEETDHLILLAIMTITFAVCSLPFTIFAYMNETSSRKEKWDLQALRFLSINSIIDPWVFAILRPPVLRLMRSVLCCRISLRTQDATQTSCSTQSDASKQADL
T2 sequence (P32240 whole entry): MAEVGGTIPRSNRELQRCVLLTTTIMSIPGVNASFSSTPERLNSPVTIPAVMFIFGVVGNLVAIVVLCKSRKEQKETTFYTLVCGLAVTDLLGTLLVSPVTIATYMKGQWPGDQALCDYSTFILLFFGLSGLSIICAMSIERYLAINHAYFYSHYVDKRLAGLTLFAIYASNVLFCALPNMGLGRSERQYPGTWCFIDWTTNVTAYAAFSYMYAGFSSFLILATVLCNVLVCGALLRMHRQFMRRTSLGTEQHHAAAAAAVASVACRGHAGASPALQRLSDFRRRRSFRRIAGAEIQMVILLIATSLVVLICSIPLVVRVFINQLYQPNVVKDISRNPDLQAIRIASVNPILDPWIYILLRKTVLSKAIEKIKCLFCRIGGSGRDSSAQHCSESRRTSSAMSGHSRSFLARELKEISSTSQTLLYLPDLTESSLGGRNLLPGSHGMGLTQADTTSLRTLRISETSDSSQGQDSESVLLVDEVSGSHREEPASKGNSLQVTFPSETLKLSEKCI

In general, pKi refers to the negative decadic logarithm of the Ki, by convention in mol/L. A high value points to a small Ki. In the case of `Cc1cccc([C@@H](C)[C@H](O)/C=C/[C@@H]2[C@@H]3[C@H](C[C@H]2O)O/C(=C\CCCc2nnn[nH]2)C3(F)F)c1` [Compound F, 4-[(Z)-(1S,5R,6R,7R)-6-[(1E,3R,4R)-3-hydroxy-4-(m-tolyl)-1-pentenyl]-7-hydroxy-2-oxa-4,4-difluoro-bicyclo[3.3.0]octan-3-ylidene]-1-(tetrazol-5-yl)butane], in data set [1], the Residual ratio was determined as 91.6±6.8%. Moreover, the pKi at Human EP2 is 6.24; at Mouse EP4, 7.17; on Human EP3 it was 6.39; at Human EP4, 8.18. Moreover, the “affinity for binding to human EP4 higher than that to human IP” value on Human EP4 (ratio of Ki values) was no less than 100 fold. On Human EP4 (ratio of Ki values), the “affinity for binding to human EP4 higher than those to human EP1, EP2 and EP3 receptors” value is reported as no less than 60 fold. Besides, the DAI score result in data set [2] is listed as “comprehensively superior to prednisolone”. Moreover, the “effect on body weight decrease score” value in data set [2] is given as “prevented the increase in the body weight decrease score almost completely”. For the same compound, in the data set on eye, the “local irritant effect on the eye” value was “conjunctival edema and eye closure were observed 1 hr after the instillation in some animals”. Further, the “effect on increase of plasma ALT activity” value in data set [3] was “significantly and strongly suppressed the increase”. Moreover, the “effect on increase of plasma AST activity” value in data set [3] is “significantly and strongly suppressed the increase”.
